Assay results: patent publication EP0256532B1, “Use of dihydrobenzopyrane derivatives” (F. HOFFMANN-LA ROCHE AG, priority 1986, dated 1988)
Marks after values point to notes of the source that are not given here.

Legend:
[1] = test system: Antibiotika-induzierte Kolitis in Hamstern; assay: Antibiotic (clindamycin)-induced colitis in hamsters, in vivo; set-up: species or system syrischen Hamstern (LUG)
Method: Man verabreicht männlichen, 80-120 g schweren syrischen Hamstern (LUG) eine einmalige Dosis von 175 mg/kg Clindamycin-phosphat oder Clindamycin-hydrochlorid intraperitoneal, um eine Kolitis zu induzieren. Ungefähr 7 Stunden nach dieser Injektion verabreicht man den Tieren die zu testende Verbindung oral oder intraperitoneal. Während einer Periode von 4 weiteren Tagen wird diese Therapie zweimal täglich wiederholt. Für die orale Verabreichung wurde die zu testende Verbindung in Wasser suspendiert oder in Dimethylsulfoxid gelöst und mittels einer Magensonde verabreicht. Der Effekt der Therapie wurde durch das sogenannte "Hazard"-Verhältnis bestimmt. Es handelt sich dabei um das Verhältnis der Sterblichkeitsrate von Tieren, welche mit der zu testenden Verbindung behandelt worden sind, im Vergleich zu den Tieren, welche nur mit Vehikel behandelt worden sind. Die Sterblichkeitsrate wurde zweimal täglich bestimmt und wurde durch Vergleich der Ueberlebenskurven für jede Gruppe ausgewertet. Für jede Gruppe von Versuchstieren wurde die Kaplan-Meier-Schätzung der Ueberlebenskurve berechnet, und es wurde der Mantel-Cox-Test verwendet, um die Ueberlebenskurve der mit Inhibitor behandelten Gruppe mit derjenigen der nur mit Vehikel behandelten Gruppe zu vergleichen. Ein Hazard-Verhältnis von 1,0 bedeutet, dass der Effekt der Therapie nicht besser ist, als derjenige der mit dem Vehikel allein erzielt wird, währenddem ein Hazard-Verhältnis (>1.0) bedeutet, das die Therapie die Ueberlebensrate im Vergleich zu derjenigen Gruppe, welche nur mit dem Vehikel behandelt worden ist, verbessert.

[2] = test system: Essigsäure-induzierte Colitis in Ratten; assay: Acetic acid-induced colitis in rats, in vivo (myeloperoxidase in colon mucosa); set-up: species or system Ratten (Sprague-Dawley)
Description: Der Essigsäure-induzierte-Colitis-Bioassay an Ratten ist durch J.E. Krawisz et al. in Amer. J. Proc. Gastro. Col. Rec. Surg. 31, 11-18 (1980) und P. Sharon und W.F. Stenson in Gastroenterology 88, 55-63 (1985) und 86, 453-460 (1984) beschrieben worden. Die Essigsäure-induzierte Colitis ist durch eine Wanderung von Entzündungszellen in das Kolon charakterisiert. Die Anzahl derartiger Zellen in der Mucosa kann bestimmt werden, indem man die Aktivität der Myeloperoxidase, einem Marker-Enzym für diese Zellen, misst. Eine positive gewünschte Wirkung zeigt sich in einer Reduktion des hohen Myeloperoxidase-Spiegels, der durch die Essigsäure verursacht wird. Männliche, 150-300 g schwere Ratten (Sprague-Dawley) werden während 2 Tagen, zweimal täglich entweder mit dem Vehikel (Wasser oder Dimethylsulfoxid) oder der im Wasser suspendierten oder in Dimethylsulfoxid gelösten Testsubstanz oral vorbehandelt. Am 3. Tag behandelt man die Tiere noch einmal wie an den beiden Vortagen, anästhetisiert mit Metofan, injiziert 2 ml 2,5-proz. Essigsäure mittels einer Spritze in das Lumen des Kolons und unmittelbar danach 3 ml Luft und eine Spüllösung, bestehend aus 3 ml Phosphat-gepufferter Kochsalzlösung, […] genügend lange im Lumen, um eine Entzündung zu induzieren, ohne jedoch schwere Nekrose oder irreversible Schäden zu bewirken). […]

LTB₄ = assay: Rat colon mucosa in vitro (Ussing short-circuit technique), LTB₄-induced electrolyte secretion; format: cell-based, Ratte; settings: 6 animals
Description: (§1) Das Bioassay-System des Versuches mit der Mucosa des Rattenkolons basiert auf der Messung der durch Absorption oder Sekretion bewirkten Aenderungen im Salztransport durch das tierische Gewebe, wobei man die durch Ussing et al. beschriebene Standard-Kurzschluss-Technik verwendet, Acta Physiol. Scand. 23, 110-127 (1951). Diarrhö ist das häufigste Symptom bei gastrointestinalen Entzündungen und tritt bei allen Typen der Enteritis auf. Pantera, et al., Ital. J. Gastroenterol. 13: 24-27 (1981); Sales, et al., Arch. Int. Med. 143: 294-299 (1983); Hodgson, Br. J. Clin. Pharmac. 14: 159-270 (1982). Diarrhö wird durch eine Abnahme in der Salzabsorption oder eine Zunahme in der Salzsekretion im Darm bewirkt und kann durch die oben erwähnte Methode von Ussing et al. in vitro quantifiziert werden. Man entfernt von 200-250 g schweren Tieren ein 1 cm langes Segment des Kolons, behandelt dieses in vitro mit Leukotrienen oder Bradykinin, welche die Salzsekretion fördern, und misst die erhaltene Aenderung im Netto-Salztransport, welche in Gegenwart und in Abwesenheit von 6-Acetyl-7-[5-(4-acetyl-3-hydroxy-2-propylphenoxy)pentyloxy] -3,4-dihydro-2H-1-benzopyran-2-carbonsäure als Hemmer erhalten wird. Gewebeproben werden paarweise in Ussing-Kammern befestigt und mit automatischen Spannungsklemmen (von der University of Iowa Bioengineering Department) kurzgeschlossen. […]

LTD₄ = assay: Rat colon mucosa in vitro (Ussing short-circuit technique), LTD₄-induced electrolyte secretion; format: cell-based, Ratte; settings: 6 animals
Description: as §1

LTC₄ = assay: Rat colon mucosa in vitro (Ussing short-circuit technique), LTC₄-induced electrolyte secretion; format: cell-based, Ratte; settings: 6 animals
Description: as §1

Bradykinin = assay: Rat colon mucosa in vitro (Ussing short-circuit technique), bradykinin-induced secretion; format: cell-based, Ratte; settings: Figur 1; result in words
Description: as §1

LTE₄ = assay: Rat colon mucosa in vitro (Ussing short-circuit technique), LTE₄-induced electrolyte secretion; format: cell-based, Ratte; settings: 6 animals
Description: as §1

[3] = test system: Carrageenin-induzierte Colitis in Meerschweinchen; assay: Carrageenin-induced colitis in guinea pigs, in vivo (water transport in distal colon); set-up: species or system Meerschweinchen (Hartley); settings: 10 bzw. 30 mg/kg oral; Figur 5
Description: Der Carrageenin-induzierte-Colitis-Bioassay an Meerschweinchen ist durch A. B. Onderdonk in Inflammatory Bowel Diseases, Martinus Nijhoff Publ., Boston, Massachusetts, Seiten 126-134 (1982) und in Human Intestinal Microflora in Health and Disease (D. J. Hentger. ed), Academic Press, New York, 1983, Seiten 447-479 beschrieben worden. Das aus Rotalgen herstammende Polysaccharid Jotacarrageenin bewirkt in Meerschweinchen eine Colitis, welche der ulcerativen Colitis im Menschen ähnlich ist. Männliche und weibliche, 400-650 g Meerschweinchen (Hartley) erhielten via Trinkwasser täglich eine 3-proz. Lösung von abgebautem Carrageenin. Nach etwa 7 Tagen begannen die Versuchstiere eine Diarrhö zu entwickeln, nahmen an Gewicht nicht mehr zu und wurden lethargisch. Nachdem die Versuchstiere während 14 Tagen auf diese Weise Carrageenin verabreicht erhielten, wurde die Diarrhö quantifiziert, und zwar durch Messung des Wassertransportes in den distalen Teil des Kolons durch einfache Pass-Perfusion unter Verwendung von 14C-Polyäthylenglykol 4000 (PEG 4000) als Marker. Kontrolltiere erhielten eine wässrige Trinklösung, enthaltend 3-proz. mannitol anstelle des Carrageenins. Gleichzeitig wurden zufällig ausgewählte Versuchstiere aus diesen beiden Gruppen zweimal täglich mit der Testsubstanz oral behandelt.

[4] = 10 mg/kg intraperitoneal in 0,075 ml PEG-400, twice daily, >1.0 = survival better than vehicle
[5] = 10 mg/kg oral in 0,15 ml Wasser, twice daily
[6] = Inhibitor Konzentration 1 Mikromol
[7] = Inhibitor Konzentration 10 Mikromol

6-Acetyl-7-[5-(4-acetyl-3-hydroxy-2-propylphenoxy)pentyloxy]-3,4-dihydro-2H-1-benzopyran-2-carbonsäure-hexylesters
Hazardverhältnis ([1]; 20 µMol/kg oral (Tabelle 3)): 1,64

CCCc1c(OCCCCCOc2cc3c(cc2C(C)=O)CCC(C(=O)O)O3)ccc(C(C)=O)c1O (racemic) [6-Acetyl-7-[5-(4-acetyl-3-hydroxy-2-propylphenoxy)pentyloxy] -3,4-dihydro-2H-1-benzopyran-2-carbonsäure]
Hazardverhältnis [1, 4]: 2,87
Hazardverhältnis [1, 5]: 3,80
Hazardverhältnis ([1]; 60 mg/kg intraperitoneal in 0,075 ml PEG-400, twice daily): 4,77
Hazardverhältnis ([1]; 60 mg/kg oral in 0,15 ml Wasser, twice daily): 12,0
Hazardverhältnis ([1]; 100 mg/kg oral in 0,15 ml Wasser, twice daily): 64,2
Hazardverhältnis ([1]; 20 µMol/kg oral (Tabelle 3)): 1,45
Histopathological effects on cecum and colon (oedema, bleeding, necrosis, erosions, inflammatory cell infiltration) ([1]; 60 oder 100 mg/kg, in most cases): reduziert oder gänzlich zum Verschwinden gebracht
Activity against antibiotic-induced colitis ([1]; oral doses 10 bis 100 mg/kg): aktiv
Diarrhö ([1]; result in words): reduzierte
Histopathologie des Cecums und des Kolons ([1]; result in words): verbesserte in einem beträchtlichen Ausmass
Ueberlebensrate der mit Clidamycin behandelten Tiere ([1]; result in words): erhöht
Activity (reduction of myeloperoxidase level caused by acetic acid) ([2]; oral 30 und 90 mg/kg, Figur 3): aktiv
% Inhibition gegen Leukotriene LTB₄ (LTB₄; [6]): 44,4±13,1%
% Inhibition gegen Leukotriene LTB₄ (LTB₄; [7]): 69,6±11,9%
% Inhibition gegen Leukotriene LTD₄ (LTD₄; [6]): 30,8±15,4%
% Inhibition gegen Leukotriene LTD₄ (LTD₄; [7]): 62,4±10,0%
% Inhibition gegen Leukotriene LTC₄ (LTC₄; [6]): 9,5±19,2%
% Inhibition gegen Leukotriene LTC₄ (LTC₄; [7]): 57,1+19,7%
sekretorische Aktivität von Bradykinin (Bradykinin): reduzieren
% Inhibition gegen Leukotriene LTE₄ (LTE₄; Inhibitor Konzentration 1 Mikromol (µM)): 29,8±15,0%
% Inhibition gegen Leukotriene LTE₄ (LTE₄; Inhibitor Konzentration 10 Mikromol (µM)): 44,2± 9,8%
Wassertransport-Raten [3]: praktisch gleich waren, wie diejenigen der Kontroll-Versuchstiere

CCCc1c(OCCCCCOc2cc3c(cc2C(C)=O)CCC(C(=O)OC)O3)ccc(C(C)=O)c1O (racemic) [6-Acetyl-7-[5-(4-acetyl-3-hydroxy-2-propylphenoxy)pentyloxy]-3,4-dihydro-2H-1-benzopyran-2-carbonsäure-methylester]
Hazardverhältnis ([1]; 20 µMol/kg oral (Tabelle 3)): 3,42

O=C1CCN(c2ccccc2)N1 [Phenidon, reference compound]
Activity (reduction of myeloperoxidase level caused by acetic acid) ([2]; oral 100 und 200 mg/kg, Figur 2): aktiv

CCCc1c(OCC(O)COc2ccc3c(=O)cc(C(=O)O)oc3c2CCC)ccc(C(C)=O)c1O (stereo not drawn) [Vergleichssubstanz 1, 7-[-3-(4-Acetyl-3-hydroxy-2-propyl-phenoxy)-2-hydroxypropoxy] -4-oxo-8-propyl-4H-1-benzopyran-2-carbonsäure, reference compound]
Hazardverhältnis [1, 4]: 2,02^c
Hazardverhältnis [1, 5]: 1,42
Activity against antibiotic-induced colitis ([1]; oral 10 mg/kg): inaktive

CCCc1c(OCCCOc2ccc3c(=O)cc(CCCC(=O)O)oc3c2CCC)ccc(C(C)=O)c1O [Vergleichssubstanz 2, 7-[3-(4-Acetyl-3-hydroxy-2-propylphenoxy)propoxy]-4-oxo-8-propyl-4H-1-benzopryran-2-propancarbonsäure, reference compound]
Hazardverhältnis ([1]; 13 mg/kg oral in 0,15 ml Wasser, twice daily): 1,68
Activity against antibiotic-induced colitis ([1]; oral 10 mg/kg): inaktive
